# Data from US11000560B2, “Oncolytic adenoviruses with mutations in immunodominant adenovirus epitopes and their use in cancer treatment” (VCN B[…], priority 2015, dated 2021).
# Test system: human HLA-A2.1
# Assay: HLA-A2.1 stabilization assay (RMA-S A2 cells)
# Assay type: binding
# Conditions: for reduction of HLA-A2 binding compared to unmodified counterpart: from Kd values; for HLA-A2 binding compared to unmodified counterpart: peptide 300 to 0.1 μM
# Method: An HLA-A2.1 stabilization assay was used, with minor modifications from Takiguchi et al. (Takiguchi, M., Tissue Antigens. 2000 April; 55(4):296-302) (incorporated by reference herein in its entirety), to evaluate the binding affinity of mutated peptides. Murine cells expressing HLA-A2.1 (RMA-S A2 cells) were incubated for 18 h at 26° C. in order to allow for HLA-A2 surface expression in the absence of any peptide. Peptides were serially diluted 1:3 in a 96-well plate with a U shape bottom, starting with 300 μM up to 0.1 μM in 100 μl volume. 2.5e5 RMA-S A2 cells were added to each well in 100 μl volume. The mixture was incubated for 2 hours at 26° C. and then at 37° C. for 2 hours to allow unbound HLA-A2.1 to be internalized. Cells were spun for 3 minutes at 500 g and washed three times with PBS, FBS 5%, BSA 0.5%. Cells were incubated with 100 μl of the supernatant of hybridoma anti-HLA-A2.1 (PA2.1) and incubated for 30 minutes at 4° C. Cells were washed three times and then incubated with Alexa Fluor® 488 goat anti-mouse IgG (Molecular Probes®) at 1:500 dilution for 30 minutes at 4° C. Cells were washed three times and then analyzed with Gallios flow cytometer (Beckman Coulter). As a negative control, RMA-S A2 cells were incubated with a peptide having no affinity to HLA-A2.1 under the same experimental conditions. The fluorescence index was calculated using the formula: Fluorescein Index=(sample fluorescence−negative control fluorescence)/negative control fluorescence.
# Using GraphPad Prism v5, Kd values were analyzed using a non-linear regression. A Kd value was obtained for each peptide that represents the binding constant in equilibrium with half of the maximum possible binding.
Sequence,reduction of HLA-A2 binding compared to unmodified counterpart,HLA-A2 binding compared to unmodified counterpart
GLVDCYINP [L520P],more than 10 times,–
YVLFEVFDK [V925K],~600 times,–
YLNHTFKKA [V721A],–,maintained the same level of binding
LLYANSAHS [A900S],–,maintained the same level of binding
